System: ovolysozyme
Assay: AGE formation inhibitory action: formation of lysozyme dimer (crosslinking) on incubation with xylose, SDS-PAGE with silver staining
Type: biochemical
Conditions: 1 mg/ml ovolysozyme, 100 mM xylose, pH 7.4 phosphate-buffered saline, 37° C., 21 days; dimer (28.8 Kda) formation relative to control
Protocol: Solutions of the test compound shown in Table 1 in dimethyl sulfoxide, said solutions containing said test compound at various concentrations, were each added together with 1 mg/ml of ovolysozyme and 100 mM of xylose to a phosphate-buffered physiological saline of pH 7.4. Each reaction mixture was then incubated at 37° C. for 21 days. A portion of the reaction mixture, said portion being in a predetermined amount, was then separated by sodium lauryl sulfate-polyacrylamide gel electrophoresis (SDS-PAGE). After the electrophoresis, the gel was treated by silver staining to stain proteins. AGE formation inhibitory action of the test compound was calculated in terms of 50% inhibitory concentration by image-processing and analyzing the degree of formation of the dimer (28.8 Kda) of lysozyme (14.4 Kda) relative to that in a control, that is, a reaction mixture not added with the test compound while making use of NIH Image Ver. 1.55.

Row | SMILES | AGE formation inhibitory action, 50% inhibitory concentration (IC50) [µg/mL]
1 | NN=C(N)N [Amionoguanidine, aminoguanidine] | 30
2 | CCCN(CCC)C(=O)C(CCC(=O)O)NC(=O)C=C1SC=CS1 (centres unmarked) [Example 1, 5-(dipropylamino)-4-((2-(1,3-dithiol-2-ylidene)acetyl)amino)-5-oxopentanoic acid] | 30
